Test results from US7662860B2 (priority 2003, dated 2010).
Read-outs that look alike come from different tables or passages of the source.

Columns and labels:
SARS-CoV virus = assay type: cell-based; conditions: for CPE / Protective ratio of the infected cells: Vero-E6 cells infected with SARS-CoV; for Protective ratio of the infected cells: >1.5 times judged active

## CN(C)CCCSc1ccccc1NC(=O)C=Cc1ccccc1 [cinanserin, 2′-(3-dimethylaminopropylthio)cinnamanilide]
Vero-E6 cell
  Cytotoxicity of the sample: —* (key: *: if the cytotoxicity of the sample is >50% when comparing with the cell control, CPE isn't evaluated, and the protective ratio isn't calculated)
SARS-CoV virus; 4 ug/mL
  CPE: + (<25% +)
  Protective ratio of the infected cells: 3.69 times
SARS-CoV virus; 20 ug/mL
  CPE: + (<25% +)
  Protective ratio of the infected cells: 3.85 times
SARS-CoV virus; result in words
  protective activity of inhibiting SARS-CoV from infecting Vero-E6 cell: evident protective activity
